In this data set the test system is Dkk1-LRP5-TCF-Luciferase. The experiment in a line: Functional Dkk1-LRP5-TCF-Luciferase Assay in U2OS Cells. As to conditions: for fold induction at 2 µM / fold induction at 20 µM / pEC50: Homo sapiens, U2OS; for fold induction at 2 µM: read-out: B = TCF ACTIVITY/DMSO CONTROL Fold induction @ 2.0 uM, 2.0 uM compound; for fold induction at 20 µM: read-out: C = TCF ACTIVITY/DMSO CONTROL Fold induction @ 20.0 uM, 20.0 uM compound; for A = MAX FOLD Induction/DMSO CONTROL: maximum fold induction over DMSO control.

pEC50: −log10 of the molar value.

Take `O=C(N[C@H]1CCN(c2nccc(-c3ccc4ccccc4c3)n2)C1)N1CCCC1` [N-{(3S)-1-[4-(2-naphthyl)pyrimidin-2-yl]pyrrolidin-3-yl}pyrrolidine-1-carboxamide]: the fold induction at 2 µM is 1.89.

Consider `NC(=O)N[C@H]1CCN(c2nccc(-c3ccc4ccccc4c3)n2)C1` [N-{(3S)-1-[4-(2-naphthyl)pyrimidin-2-yl]pyrrolidin-3-yl}urea], for which the fold induction at 20 µM was determined as 1.47.

Regarding `Cc1ccc(S(=O)(=O)N2CC[C@H](Nc3nccc(-c4ccc5ccccc5c4)n3)C2)cc1` [N-{(3S)-1-[(4-methylphenyl)sulfonyl]pyrrolidin-3-yl}-4-(2-naphthyl)pyrimidin-2-amine], the fold induction at 2 µM was determined as 1.22 and the fold induction at 20 µM stood at 1.01.

Consider `CS(=O)(=O)N1CC(CNc2nccc(-c3ccc4ccccc4c3)n2)C1` [N-{[1-(methylsulfonyl)azetidin-3-yl]methyl}-4-(2-naphthyl)pyrimidin-2-amine], for which the fold induction at 20 µM turned out to be 1.52.

Consider `CS(=O)(=O)N1CCC(CNc2nccc(-c3ccc4ccccc4c3)n2)CC1` [N-{[1-(methylsulfonyl)piperidin-4-yl]methyl}-4-(2-naphthyl)pyrimidin-2-amine], for which the fold induction at 2 µM was determined as 1.54 and the fold induction at 20 µM was found to be 1.35.

Consider `O=C(NCCC1CCN(c2nccc(-c3ccc4ccccc4c3)n2)CC1)OCc1ccccc1` [benzyl (2-{1-[4-(2-naphthyl)pyrimidin-2-yl]piperidin-4-yl}ethyl)carbamate], for which the fold induction at 2 µM came out at 0.86 and the fold induction at 20 µM turned out to be 1.49.

As to `CC(C)(C)OC(=O)/N=C(/NCC1CCN(c2nccc(-c3ccc4ccccc4c3)n2)CC1)NC(=O)OC(C)(C)C` [di-tert-butyl {(Z)-[({1-[4-(2-naphthyl)pyrimidin-2-yl]piperidin-4-yl}methyl)amino]methylylidene}biscarbamate], the fold induction at 2 µM was found to be 0.94 and the fold induction at 20 µM worked out at 1.35.

Take `CCOC(=O)N(CCN1CCN(c2nccc(-c3ccc4ccccc4c3)n2)CC1)C(=O)OCC` [diethyl (2-{4-[4-(2-naphthyl)pyrimidin-2-yl]piperazin-1-yl}ethyl)imidodicarbonate]: the fold induction at 2 µM was determined as 1.72.

As for `CCOC(=O)C1CCN(c2nccc(-c3ccc4ccccc4c3)n2)CC1` [ethyl 1-[4-(2-naphthyl)pyrimidin-2-yl]piperidine-4-carboxylate], the fold induction at 2 µM is 1.64, the fold induction at 20 µM turned out to be 1.91 and the “A = MAX FOLD Induction/DMSO CONTROL” value was 1.950 fold.

As usually defined, the pEC50 is the EC50 on a negative log10 scale, so that one unit is a factor of ten. For `CCOC(=O)N1CCCN(c2nccc(-c3ccc4ccccc4c3)n2)CC1` [ethyl 4-[4-(2-naphthyl)pyrimidin-2-yl]-1,4-diazepane-1-carboxylate], the pEC50 was 4.52, the fold induction at 20 µM came out at 2.49 and the “A = MAX FOLD Induction/DMSO CONTROL” value amounted to 1.790 fold.

Consider `CCOC(=O)N1CC[C@@H](Nc2nccc(-c3ccc4ccccc4c3)n2)C1` [ethyl (3R)-3-{[4-(2-naphthyl)pyrimidin-2-yl]amino}pyrrolidine-1-carboxylate], for which the fold induction at 20 µM came out at 1.3.

As to `CCOC(=O)N1CC[C@H](Nc2nccc(-c3ccc4ccccc4c3)n2)C1` [ethyl (3S)-3-{[4-(2-naphthyl)pyrimidin-2-yl]amino}pyrrolidine-1-carboxylate], the fold induction at 2 µM is 1.28 and the fold induction at 20 µM turned out to be 1.54.

With `CCOC(=O)CC1CCN(c2nccc(-c3ccc4ccccc4c3)n2)CC1` [ethyl {1-[4-(2-naphthyl)pyrimidin-2-yl]piperidin-4-yl}acetate], the fold induction at 2 µM was 1.26 and the fold induction at 20 µM is 1.06.

As to `CCOC(=O)N[C@@H]1CCN(c2nccc(-c3ccc4ccccc4c3)n2)C1` [ethyl {(3R)-1-[4-(2-naphthyl)pyrimidin-2-yl]pyrrolidin-3-yl}carbamate], the fold induction at 2 µM was found to be 1.21 and the fold induction at 20 µM amounted to 0.69.

Regarding `CCOC(=O)N[C@H]1CCN(c2nccc(-c3ccc4ccccc4c3)n2)C1` [ethyl {(3S)-1-[4-(2-naphthyl)pyrimidin-2-yl]pyrrolidin-3-yl}carbamate], the fold induction at 2 µM turned out to be 1.02 and the fold induction at 20 µM was determined as 1.94.

As to `COC(=O)C1CCN(c2nccc(-c3ccc4ccccc4c3)n2)CC1` [methyl 1-[4-(2-naphthyl)pyrimidin-2-yl]piperidine-4-carboxylate], the fold induction at 20 µM amounted to 1.39.

`COC(=O)N1CCCN(c2nccc(-c3ccc4ccccc4c3)n2)CC1` [methyl 4-[4-(2-naphthyl)pyrimidin-2-yl]-1,4-diazepane-1-carboxylate]: the pEC50 is 4.52, the fold induction at 20 µM was found to be 1.88 and the “A = MAX FOLD Induction/DMSO CONTROL” value is reported as 1.930 fold.

In the case of `COC(=O)N1CCC(N(C)c2nccc(-c3ccc4ccccc4c3)n2)CC1` [methyl 4-{methyl[4-(2-naphthyl)pyrimidin-2-yl]amino}piperidine-1-carboxylate], the fold induction at 2 µM turned out to be 1.43 and the fold induction at 20 µM was found to be 1.47.

Turning to `COC(=O)NCCC1CCN(c2nccc(-c3ccc4ccccc4c3)n2)CC1` [methyl (2-{1-[4-(2-naphthyl)pyrimidin-2-yl]piperidin-4-yl}ethyl)carbamate], the fold induction at 2 µM is 1.39 and the fold induction at 20 µM came to 0.89.

Consider `COC(=O)[C@H](NC(=O)OC(C)(C)C)C1CCN(c2nccc(-c3ccc4ccccc4c3)n2)CC1` [methyl (2R)-[(tert-butoxycarbonyl)amino]{1-[4-(2-naphthyl)pyrimidin-2-yl]piperidin-4-yl}acetate], for which the fold induction at 20 µM turned out to be 0.77.

Turning to `COC(=O)[C@H](N)C1CCN(c2nccc(-c3ccc4ccccc4c3)n2)CC1` [methyl (2R)-amino{1-[4-(2-naphthyl)pyrimidin-2-yl]piperidin-4-yl}acetate], the pEC50 is 5.05, the fold induction at 2 µM turned out to be 1.68, the fold induction at 20 µM was 1.05 and the “A = MAX FOLD Induction/DMSO CONTROL” value came to 3.200 fold.

On to `COC(=O)[C@@H](NC(=O)OC(C)(C)C)C1CCN(c2nccc(-c3ccc4ccccc4c3)n2)CC1` [methyl (2S)-[(tert-butoxycarbonyl)amino]{1-[4-(2-naphthyl)pyrimidin-2-yl]piperidin-4-yl}acetate], for which the fold induction at 20 µM worked out at 0.7.

In the case of `COC(=O)[C@@H](N)C1CCN(c2nccc(-c3ccc4ccccc4c3)n2)CC1` [methyl (2S)-amino{1-[4-(2-naphthyl)pyrimidin-2-yl]piperidin-4-yl}acetate], the fold induction at 20 µM was 0.57 and the “A = MAX FOLD Induction/DMSO CONTROL” value worked out at 1.590 fold.

Take `COC(=O)N1CC[C@@H](Nc2nccc(-c3ccc4ccccc4c3)n2)C1` [methyl (3R)-3-{[4-(2-naphthyl)pyrimidin-2-yl]amino}pyrrolidine-1-carboxylate]: the fold induction at 20 µM was 2.35 and the “A = MAX FOLD Induction/DMSO CONTROL” value worked out at 1.360 fold.

As for `COC(=O)N1CC[C@H](Nc2nccc(-c3ccc4ccccc4c3)n2)C1` [methyl (3S)-3-{[4-(2-naphthyl)pyrimidin-2-yl]amino}pyrrolidine-1-carboxylate], the pEC50 was 5.56, the fold induction at 2 µM came to 1.65, the fold induction at 20 µM stood at 2.12 and the “A = MAX FOLD Induction/DMSO CONTROL” value amounted to 2.725 fold.

As to `COC(=O)N[C@H]1CC[C@H](Nc2nccc(-c3ccc4ccccc4c3)n2)CC1` [methyl (trans-4-{[4-(2-naphthyl)pyrimidin-2-yl]amino}cyclohexyl)carbamate], the pEC50 is 4.91, the fold induction at 2 µM came out at 2.53, the fold induction at 20 µM came to 1.66 and the “A = MAX FOLD Induction/DMSO CONTROL” value is on record as 2.490 fold.

Consider `COC(=O)NCC1CN(c2nccc(-c3ccc4ccccc4c3)n2)C1` [methyl ({1-[4-(2-naphthyl)pyrimidin-2-yl]azetidin-3-yl}methyl)carbamate], for which the fold induction at 2 µM was 1.28 and the fold induction at 20 µM amounted to 1.08.

In the case of `COC(=O)NCC1CCN(c2nccc(-c3ccc4ccccc4c3)n2)CC1` [methyl ({1-[4-(2-naphthyl)pyrimidin-2-yl]piperidin-4-yl}methyl)carbamate], the fold induction at 2 µM turned out to be 1.21 and the fold induction at 20 µM stood at 1.59.

For `COC(=O)NCC1CCN(c2nccc(-c3ccc4ccccc4c3)n2)C1` (stereo not drawn) [methyl ({1-[4-(2-naphthyl)pyrimidin-2-yl]pyrrolidin-3-yl}methyl)carbamate], the fold induction at 2 µM came to 1.04 and the fold induction at 20 µM amounted to 1.08.

Regarding `COC(=O)C(NC(=O)OC(C)(C)C)=C1CCN(c2nccc(-c3ccc4ccccc4c3)n2)CC1` [methyl [(tert-butoxycarbonyl)amino]{1-[4-(2-naphthyl)pyrimidin-2-yl]piperidin-4-ylidene}acetate], the fold induction at 2 µM worked out at 1.01 and the fold induction at 20 µM was 1.24.

Take `COC(=O)C(NC(=O)OC(C)(C)C)C1CCN(c2nccc(-c3ccc4ccccc4c3)n2)CC1` (stereo not drawn) [methyl [(tert-butoxycarbonyl)amino]{1-[4-(2-naphthyl)pyrimidin-2-yl]piperidin-4-yl}acetate]: the fold induction at 20 µM was 0.71.

As to `COC(=O)C(N)C1CCN(c2nccc(-c3ccc4ccccc4c3)n2)CC1` (stereo not drawn) [methyl amino{1-[4-(2-naphthyl)pyrimidin-2-yl]piperidin-4-yl}acetate], the pEC50 is 5.48, the fold induction at 20 µM was found to be 0.03 and the “A = MAX FOLD Induction/DMSO CONTROL” value amounted to 2.360 fold.

On to `COC(=O)N(C)CCN(C)[C@@H]1CCN(c2nccc(-c3ccc4ccccc4c3)n2)C1` [methyl methyl[2-(methyl{(3R)-1-[4-(2-naphthyl)pyrimidin-2-yl]pyrrolidin-3-yl}amino)ethyl]carbamate], for which the fold induction at 20 µM worked out at 1.2.

With `COC(=O)N[C@@H]1CCN(c2nccc(-c3ccc4ccccc4c3)n2)C1` [methyl {(3R)-1-[4-(2-naphthyl)pyrimidin-2-yl]pyrrolidin-3-yl}carbamate], the fold induction at 2 µM worked out at 2.2, the fold induction at 20 µM was 0.43 and the “A = MAX FOLD Induction/DMSO CONTROL” value amounted to 0.890 fold.

(Values after patent US20090054392A1, “NAPHTHYLPYRIMIDINE, NAPHTHYLPYRAZINE AND NAPHTHYLPYRIDAZINE ANALOGS AND THEIR USE AS AGONISTS OF THE WNT-BETA-CATENIN CELLULAR MESSAGING SYSTEM” (Wyeth, priority 2007, published 2009).)
